According to the NIST ThermoML archive (doi:10.1021/je5008795):

Key:
[1] = for vapor or sublimation pressure: Transpiration method; for Normal melting temperature: DTA; for mass density: 298.15 K, 101 kPa, Vibrating tube method
[2] = refractive index (Na D-line) (dimensionless); xn = mol fraction of the nth substance listed; details: 298.15 K, 101 kPa, Liquid, Standard Abbe refractometry
[3] = xn = mol fraction of the nth substance listed; details: 298.15 K, 101 kPa, Liquid, Vibrating tube method
[4] = Molar enthalpy of transition or fusion; details: Crystal; DSC
[5] = refractive index (Na D-line) (dimensionless); details: 298.15 K; 101.33 kPa; Liquid; Standard Abbe refractometry

Brc1ccccc1Br [1,2-dibromobenzene]
[1], Liquid
Details	vapor or sublimation pressure [kPa]
290.3 K	0.01251
292.4 K	0.01408
292.5 K	0.01451
295.8 K	0.01802
298.2 K	0.02158
301.2 K	0.02661
304.2 K	0.03482
307.3 K	0.04115
310.2 K	0.05236
313.2 K	0.06399
316.3 K	0.07736
319.3 K	0.09284
320.6 K	0.09686
322.1 K	0.1075
325.2 K	0.1324
325.3 K	0.135
328.2 K	0.1579

Brc1ccccc1Br [1,2-dibromobenzene] + c1ccccc1
Details	mass density, x1 = 0.00278 [kg/m3]	mass density, x1 = 0.00365 [kg/m3]	mass density, x1 = 0.00738 [kg/m3]	mass density, x1 = 0.01251 [kg/m3]	refractive index, x1 = 0.00278	refractive index, x1 = 0.00365	refractive index, x1 = 0.00738	refractive index, x1 = 0.01251
[2]	–	–	–	–	1.49816	1.49829	1.49882	1.49961
[3]	877.563	878.834	884.292	891.807	–	–	–	–

Brc1cccc(Br)c1 [1,3-dibromobenzene]
[1], Liquid
Details	vapor or sublimation pressure [kPa]
276.4 K	0.00508
278.7 K	0.00646
281.1 K	0.00785
282.3 K	0.0086
284.7 K	0.01072
286.9 K	0.01274
288.8 K	0.01468
289.2 K	0.0154
292.3 K	0.01899
292.8 K	0.01997
295 K	0.02324
296.2 K	0.02592
298.8 K	0.03143
301 K	0.03698
301.1 K	0.03822
304.2 K	0.04771
304.9 K	0.0474
307.2 K	0.05893
308.9 K	0.06635
310 K	0.07138
312.9 K	0.08294
313.3 K	0.08608
315.2 K	0.1012
317.8 K	0.1178

Brc1ccc(Br)cc1 [1,4-dibromobenzene]
[1], Crystal
Details	vapor or sublimation pressure [kPa]
296.5 K	0.00693
299.5 K	0.00922
302.4 K	0.01272
303.5 K	0.01383
305.4 K	0.01701
308.4 K	0.02188
309.4 K	0.02467
311.4 K	0.02936
314.4 K	0.03757
317.4 K	0.04642
319.4 K	0.05898
320.4 K	0.06313
323.4 K	0.08309
329.6 K	0.143

Brc1ccc(Br)cc1 [1,4-dibromobenzene] + c1ccccc1
Details	mass density, x1 = 0.0018 [kg/m3]	mass density, x1 = 0.00185 [kg/m3]	mass density, x1 = 0.0025 [kg/m3]	mass density, x1 = 0.0033 [kg/m3]	refractive index, x1 = 0.0018	refractive index, x1 = 0.00185	refractive index, x1 = 0.0025	refractive index, x1 = 0.0033
[2]	–	–	–	–	1.49781	1.49784	1.49795	1.49808
[3]	876.211	876.342	877.295	878.419	–	–	–	–

Brc1ccc(Br)c2ccccc12 [1,4-dibromonaphthalene]
Details	Molar enthalpy of transition or fusion [kcal/mol]
[4]	5.04

Details	Normal melting temperature [°C]
[1], Crystal	80.0

Brc1ccc(Br)c2ccccc12 [1,4-dibromonaphthalene] + c1ccccc1
Details	mass density, x1 = 0.00087 [kg/m3]	mass density, x1 = 0.00189 [kg/m3]	mass density, x1 = 0.00208 [kg/m3]	mass density, x1 = 0.00321 [kg/m3]	refractive index, x1 = 0.00087	refractive index, x1 = 0.00189	refractive index, x1 = 0.00208	refractive index, x1 = 0.00321
[2]	–	–	–	–	1.49786	1.4982	1.49828	1.49872
[3]	875.112	876.792	877.158	879.019	–	–	–	–

Clc1ccc(Br)cc1 [1-bromo-4-chlorobenzene] + c1ccccc1
Details	mass density, x1 = 0.00231 [kg/m3]	mass density, x1 = 0.00253 [kg/m3]	mass density, x1 = 0.00268 [kg/m3]	refractive index, x1 = 0.00231	refractive index, x1 = 0.00253	refractive index, x1 = 0.00268
[2]	–	–	–	1.49779	1.49781	1.49782
[3]	875.875	876.093	876.25	–	–	–

Brc1ccc(-c2ccc(Br)cc2)cc1 [4,4'-dibromo-1,1'-biphenyl]
[1], Crystal
Details	vapor or sublimation pressure [kPa]
358.1 K	0.00038
363.9 K	0.00067
365.4 K	0.00077
368.4 K	0.00099
373.5 K	0.00162
378.5 K	0.00243
383.5 K	0.00367
388.6 K	0.00579
393.3 K	0.00851
396.6 K	0.01049
399.6 K	0.0138
400.4 K	0.0144
402.6 K	0.0171
404.4 K	0.02039

Brc1ccc(-c2ccc(Br)cc2)cc1 [4,4'-dibromo-1,1'-biphenyl] + c1ccccc1
Details	mass density, x1 = 0.00076 [kg/m3]	mass density, x1 = 0.0009 [kg/m3]	mass density, x1 = 0.00107 [kg/m3]	mass density, x1 = 0.00116 [kg/m3]	refractive index, x1 = 0.00076	refractive index, x1 = 0.0009	refractive index, x1 = 0.00107	refractive index, x1 = 0.00116
[2]	–	–	–	–	1.49787	1.49791	1.49796	1.49802
[3]	875.001	875.213	875.48	875.632	–	–	–	–

Brc1ccc(-c2ccccc2)cc1 [4-bromo-1,1'-biphenyl]
Details	Molar enthalpy of transition or fusion [kcal/mol]
[4]	3.9

[1], Crystal
Details	vapor or sublimation pressure [kPa]
303.2 K	9e-05
308.2 K	0.00016
313 K	0.00027
318.3 K	0.00048
323.4 K	0.00083
326.2 K	0.00109
328.2 K	0.00137
333.3 K	0.0023
338.3 K	0.00364
343.1 K	0.0056
348.3 K	0.00907
353 K	0.01426
355.7 K	0.0165
358.4 K	0.02207
360.2 K	0.0253

Details	Normal melting temperature [°C]
[1], Crystal	89.0

Brc1ccc(-c2ccccc2)cc1 [4-bromo-1,1'-biphenyl] + c1ccccc1
Details	mass density, x1 = 0.00109 [kg/m3]	mass density, x1 = 0.00186 [kg/m3]	mass density, x1 = 0.00189 [kg/m3]	mass density, x1 = 0.00237 [kg/m3]	refractive index, x1 = 0.00109	refractive index, x1 = 0.00186	refractive index, x1 = 0.00189	refractive index, x1 = 0.00237
[2]	–	–	–	–	1.49787	1.4981	1.49809	1.4982
[3]	874.692	875.469	875.45	875.983	–	–	–	–

Brc1c2ccccc2c(Br)c2ccccc12 [9,10-dibromoanthracene]
Details	Molar enthalpy of transition or fusion [kcal/mol]
[4]	6.86

Details	Normal melting temperature [°C]
[1], Crystal	224.7

Clc1c2ccccc2c(Cl)c2ccccc12 [9,10-dichloroanthracene]
Details	Molar enthalpy of transition or fusion [kcal/mol]
[4]	6

Details	Normal melting temperature [°C]
[1], Crystal	213.5

Clc1c2ccccc2cc2ccccc12 [9-chloroanthracene]
Details	Molar enthalpy of transition or fusion [kcal/mol]
[4]	5.26

Details	Normal melting temperature [°C]
[1], Crystal	103.5

c1ccccc1 [benzene]
Details	refractive index
[5]	1.49755

Details	mass density
[1], Liquid	873.633 kg/m3 [middle of 6 runs]

c1ccccc1 [benzene] + Brc1ccc(-c2ccc(Br)cc2)cc1
x2 = 0
Details	mass density [kg/m3]	refractive index
[2]	–	1.49755
[3]	873.633	–

c1ccccc1 [benzene] + Brc1ccc(-c2ccccc2)cc1
x2 = 0
Details	mass density [kg/m3]	refractive index
[2]	–	1.49755
[3]	873.616	–

c1ccccc1 [benzene] + Brc1ccc(Br)c2ccccc12
x2 = 0
Details	mass density [kg/m3]	refractive index
[2]	–	1.49755
[3]	873.652	–

c1ccccc1 [benzene] + Brc1ccc(Br)cc1
x2 = 0
Details	mass density [kg/m3]	refractive index
[2]	–	1.49755
[3]	873.671	–

c1ccccc1 [benzene] + Brc1ccccc1Br
x2 = 0
Details	mass density [kg/m3]	refractive index
[2]	–	1.49776
[3]	873.478	–

c1ccccc1 [benzene] + Clc1ccc(Br)cc1
x2 = 0
Details	mass density [kg/m3]	refractive index
[2]	–	1.49755
[3]	873.613	–

Clc1c(Cl)c(Cl)c(Cl)c(Cl)c1Cl [hexachlorobenzene] + ClC(Cl)(Cl)Cl
Details	mass density, x1 = 0.00028 [kg/m3]	mass density, x1 = 0.00052 [kg/m3]	mass density, x1 = 0.00066 [kg/m3]	mass density, x1 = 0.00094 [kg/m3]	refractive index, x1 = 0.00028	refractive index, x1 = 0.00052	refractive index, x1 = 0.00066	refractive index, x1 = 0.00094
[2]	–	–	–	–	1.45724	1.45734	1.45735	1.45743
[3]	1584.37	1584.53	1584.53	1584.63	–	–	–	–

ClC(Cl)(Cl)Cl [tetrachloromethane]
Details	refractive index
[5]	1.45715

Details	mass density [kg/m3]
[1], Liquid	1584.26

ClC(Cl)(Cl)Cl [tetrachloromethane] + Clc1c(Cl)c(Cl)c(Cl)c(Cl)c1Cl
x2 = 0
Details	mass density [kg/m3]	refractive index
[2]	–	1.45715
[3]	1584.26	–
